Measured values: patent US20100099561A1, “HETEROBICYCLIC ALKYLTHIO-BRIDGED ISOXAZOLINES” (E.I. DU PONT DE NEMOURS AND COMPANY, priority 2008, published 2010)

Assays:
Assay type in all cases: in vivo
[1] = tested on: canarygrass (Phalaris minor); test: Test C preemergence, canarygrass; conditions: 21 days, scale 0 to 100
From the text: (§1) Seeds of plant species selected from annual bluegrass (Poa annua), blackgrass (Alopecurus myosuroides), canarygrass (Phalaris minor), gallium, (catchweed bedstraw, Galium aparine), chickweed (Stellaria media), downy bromegrass (Bromus tectorum), field poppy (Papaver rhoeas), field violet (Viola arvensis), green foxtail (Setaria viridis), deadnettle (henbit deadnettle, Lamium amplexicaule), Italian ryegrass (Lolium multiflorum), kochia (Kochia scoparia), lambsquarters (Chenopodium album), oilseed rape (Brassica napus), pigweed (Amaranthus retroflexus), Russian thistle (Salsola kali), spring barley (Hordeum vulgare), spring wheat (Triticum aestivum), wild buckwheat (Polygonum convolvulus), wild mustard (Sinapis arvensis), wild oat (Avena fatua), wild radish (Raphanus raphanistrum), windgrass (Apera spica-venti), winter barley (Hordeum vulgare), and winter wheat (Triticum aestivum) were planted and treated preemergence with test chemicals formulated in a non-phytotoxic solvent mixture which included a surfactant.
(§2) Treated plants and controls were maintained in a controlled growth environment for 21 days after which time all species were compared to controls and visually evaluated. Plant response ratings, summarized in Table C, are based on a scale of 0 to 100 where 0 is no effect and 100 is complete control. A dash (-) response means no test result.

[2] = tested on: cocklebur (Xanthium strumarium); test: Test B preemergence, cocklebur; conditions: scale 0 to 100
From the text: (§3) Seeds of plant species selected from blackgrass (Alopecurus myosuroides), downy bromegrass (Bromus tectorum), green foxtail (Setaria viridis), Italian ryegrass (Lolium multiflorum), wheat (Triticum aestivum), wild oat (Avena fatua), catchweed bedstraw (Galium aparine), bermudagrass (Cynodon dactylon), Surinam grass (Brachiaria decumbens), cocklebur (Xanthium strumarium), corn (Zea mays), large crabgrass (Digitaria sanguinalis), woolly cupgrass (Eriochloa villosa), giant foxtail (Setaria faberii), goosegrass (Eleusine indica), johnsongrass (Sorghum halepense), kochia (Kochia scoparia), lambsquarters (Chenopodium album), morningglory (Ipomoea coccinea), nightshade (eastern black nightshade, Solanum ptycanthum), yellow nutsedge (Cyperus esculentus), pigweed (Amaranthus retroflexus), ragweed (common ragweed, Ambrosia elatior), soybean (Glycine max), sunflower (common oilseed sunflower, Helianthus annuus), Russian thistle (Salsola kali), and velvetleaf (Abutilon theophrasti) were planted into a blend of loam soil and sand and treated preemergence with test compounds formulated in a non-phytotoxic solvent mixture which included a surfactant. Treated plants and controls were maintained in a greenhouse for 13 to 15 days, after which time all species were compared to controls and visually evaluated. Plant response ratings, summarized in Table B, are based on a scale of 0 to 100 where 0 is no effect and 100 is complete control. A dash (-) response means no test result.

[3] = tested on: large crabgrass (Digitaria sanguinalis); test: Test A postemergence, large crabgrass; conditions: 0 to 100 scale (0 no effect, 100 complete control)
Procedure, shortened: (§4)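 Ratings of 0–100 (0 no effect, 100 complete control) came from visual comparison with untreated controls after roughly ten days in a greenhouse. Plants in loam soil–sand blend were treated with compound in non-phytotoxic solvent plus surfactant, pre- or postemergence (one- to two-leaf stage).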

[4] = tested on: field poppy (Papaver rhoeas); test: Test C preemergence, field poppy; conditions: 21 days, scale 0 to 100
From the text: as §1, §2

[5] = tested on: green foxtail (Setaria viridis); test: Test B preemergence, green foxtail; conditions: scale 0 to 100
From the text: as §3

[6] = tested on: Italian ryegrass (Lolium multiflorum); test: Test C preemergence, Italian ryegrass; conditions: 21 days, scale 0 to 100
From the text: as §1, §2

[7] = tested on: windgrass (Apera spica-venti); test: Test C preemergence, windgrass; conditions: 21 days, scale 0 to 100
From the text: as §1, §2

[8] = tested on: barnyardgrass (Echinochloa crus-galli); test: Test A postemergence, barnyardgrass; conditions: 0 to 100 scale (0 no effect, 100 complete control)
Procedure, shortened: as §4

[9] = tested on: downy bromegrass (Bromus tectorum); test: Test B preemergence, downy bromegrass; conditions: scale 0 to 100
From the text: as §3

[10] = tested on: downy bromegrass (Bromus tectorum); test: Test C preemergence, downy bromegrass; conditions: 21 days, scale 0 to 100
From the text: as §1, §2

[11] = tested on: Russian thistle (Salsola kali); test: Test C preemergence, Russian thistle; conditions: 21 days, scale 0 to 100
From the text: as §1, §2

[12] = tested on: spring barley (Hordeum vulgare); test: Test C preemergence, spring barley; conditions: 21 days, scale 0 to 100
From the text: as §1, §2

[13] = tested on: wild oat (Avena fatua); test: Test C preemergence, wild oat; conditions: 21 days, scale 0 to 100
From the text: as §1, §2

[14] = tested on: Italian ryegrass (Lolium multiflorum); test: Test B preemergence, Italian ryegrass; conditions: Preemergence, scale 0 to 100
From the text: as §3

[15] = tested on: Russian thistle (Salsola kali); test: Test B preemergence, Russian thistle; conditions: scale 0 to 100
From the text: as §3

## CC1(C)CC(S(=O)(=O)Cc2c(C(F)(F)F)nc3n(c2=O)CCS3)=NO1 [Compound 6]
[1]; 125 g ai/ha
  Plant response rating, Canarygrass: 35
[2]; 16 g ai/ha
  Plant response rating, Cocklebur: 0
[2]; 31 g ai/ha
  Plant response rating, Cocklebur: 0
[2]; 62 g ai/ha
  Plant response rating, Cocklebur: 0
[2]; 125 g ai/ha
  Plant response rating, Cocklebur: 0
[3]; 125 g ai/ha
  Plant response rating, Crabgrass, Large: 80
[3]; 500 g ai/ha
  Plant response rating, Crabgrass, Large: 90
[4]; 31 g ai/ha
  Plant response rating, Field Poppy: 40
[4]; 62 g ai/ha
  Plant response rating, Field Poppy: 50
[4]; 125 g ai/ha
  Plant response rating, Field Poppy: 90
[4]; 250 g ai/ha
  Plant response rating, Field Poppy: 100
[5]; 16 g ai/ha
  Plant response rating, Foxtail, Green: 50
[5]; 31 g ai/ha
  Plant response rating, Foxtail, Green: 50
[5]; 62 g ai/ha
  Plant response rating, Foxtail, Green: 50
[5]; 125 g ai/ha
  Plant response rating, Foxtail, Green: 100
[6]; 31 g ai/ha
  Plant response rating, Ryegrass, Italian: 0
[6]; 62 g ai/ha
  Plant response rating, Ryegrass, Italian: 15
[6]; 125 g ai/ha
  Plant response rating, Ryegrass, Italian: 15
[6]; 250 g ai/ha
  Plant response rating, Ryegrass, Italian: 95
[7]; 125 g ai/ha
  Plant response rating, Windgrass: 20
[8]; 125 g ai/ha
  Plant response rating, Barnyardgrass: 70
[8]; 500 g ai/ha
  Plant response rating, Barnyardgrass: 80
[9]; 16 g ai/ha
  Plant response rating, Bromegrass, Downy: 0
[9]; 31 g ai/ha
  Plant response rating, Bromegrass, Downy: 20
[9]; 62 g ai/ha
  Plant response rating, Bromegrass, Downy: 20
[9]; 125 g ai/ha
  Plant response rating, Bromegrass, Downy: 50
[10]; 31 g ai/ha
  Plant response rating, Bromegrass, Downy: 0
[10]; 62 g ai/ha
  Plant response rating, Bromegrass, Downy: 0
[10]; 125 g ai/ha
  Plant response rating, Bromegrass, Downy: 25
[10]; 250 g ai/ha
  Plant response rating, Bromegrass, Downy: 35
[11]; 31 g ai/ha
  Plant response rating, Russian Thistle: 0
[11]; 62 g ai/ha
  Plant response rating, Russian Thistle: 0
[11]; 125 g ai/ha
  Plant response rating, Russian Thistle: 0
[12]; 31 g ai/ha
  Plant response rating, Barley, Spring: 20
[12]; 62 g ai/ha
  Plant response rating, Barley, Spring: 20
[12]; 125 g ai/ha
  Plant response rating, Barley, Spring: 20
[12]; 250 g ai/ha
  Plant response rating, Barley, Spring: 20
[13]; 31 g ai/ha
  Plant response rating, Oat, Wild: 20
[13]; 62 g ai/ha
  Plant response rating, Oat, Wild: 25
[13]; 125 g ai/ha
  Plant response rating, Oat, Wild: 25
[13]; 250 g ai/ha
  Plant response rating, Oat, Wild: 30
[14]; 16 g ai/ha
  Plant response rating, Ryegrass, Italian: 0
[14]; 31 g ai/ha
  Plant response rating, Ryegrass, Italian: 15
[14]; 62 g ai/ha
  Plant response rating, Ryegrass, Italian: 80
[14]; 125 g ai/ha
  Plant response rating, Ryegrass, Italian: 95

## CC1(C)CC(S(=O)(=O)Cc2c(C(F)(F)F)nc3n(c2=O)CCCC3)=NO1 [Compound 8, 3-[[(4,5-dihydro-5,5-dimethyl-3-isoxazolyl)sulfonyl]methyl]-6,7,8,9-tetrahydro-2-(trifluoromethyl)-4H-pyrido[1,2-α]pyrimidin-4-one]
[15]; 16 g ai/ha
  Plant response rating, Russian Thistle: 0
[15]; 31 g ai/ha
  Plant response rating, Russian Thistle: 0
[15]; 62 g ai/ha
  Plant response rating, Russian Thistle: 0
[15]; 125 g ai/ha
  Plant response rating, Russian Thistle: 0
[1]; 16 g ai/ha
  Plant response rating, Canarygrass: 0
[1]; 31 g ai/ha
  Plant response rating, Canarygrass: 0
[1]; 62 g ai/ha
  Plant response rating, Canarygrass: 0
[1]; 125 g ai/ha
  Plant response rating, Canarygrass: 20
[2]; 16 g ai/ha
  Plant response rating, Cocklebur: 0
[2]; 31 g ai/ha
  Plant response rating, Cocklebur: 0
[2]; 62 g ai/ha
  Plant response rating, Cocklebur: 0
[2]; 125 g ai/ha
  Plant response rating, Cocklebur: 0
[3]; 125 g ai/ha
  Plant response rating, Crabgrass, Large: 60
[3]; 500 g ai/ha
  Plant response rating, Crabgrass, Large: 90
[4]; 16 g ai/ha
  Plant response rating, Field Poppy: 0
[4]; 31 g ai/ha
  Plant response rating, Field Poppy: 0
[4]; 62 g ai/ha
  Plant response rating, Field Poppy: 50
[4]; 125 g ai/ha
  Plant response rating, Field Poppy: 75
[5]; 16 g ai/ha
  Plant response rating, Foxtail, Green: 70
[5]; 31 g ai/ha
  Plant response rating, Foxtail, Green: 85
[5]; 62 g ai/ha
  Plant response rating, Foxtail, Green: 98
[5]; 125 g ai/ha
  Plant response rating, Foxtail, Green: 98
[6]; 16 g ai/ha
  Plant response rating, Ryegrass, Italian: 0
[6]; 31 g ai/ha
  Plant response rating, Ryegrass, Italian: 0
[6]; 62 g ai/ha
  Plant response rating, Ryegrass, Italian: 0
[6]; 125 g ai/ha
  Plant response rating, Ryegrass, Italian: 0
[7]; 16 g ai/ha
  Plant response rating, Windgrass: 0
[7]; 31 g ai/ha
  Plant response rating, Windgrass: 0
[7]; 62 g ai/ha
  Plant response rating, Windgrass: 35
[7]; 125 g ai/ha
  Plant response rating, Windgrass: 90
[8]; 125 g ai/ha
  Plant response rating, Barnyardgrass: 80
[8]; 500 g ai/ha
  Plant response rating, Barnyardgrass: 90
[9]; 16 g ai/ha
  Plant response rating, Bromegrass, Downy: 0
[9]; 31 g ai/ha
  Plant response rating, Bromegrass, Downy: 0
[9]; 62 g ai/ha
  Plant response rating, Bromegrass, Downy: 20
[9]; 125 g ai/ha
  Plant response rating, Bromegrass, Downy: 40
[10]; 16 g ai/ha
  Plant response rating, Bromegrass, Downy: 0
[10]; 31 g ai/ha
  Plant response rating, Bromegrass, Downy: 0
[10]; 62 g ai/ha
  Plant response rating, Bromegrass, Downy: 0
[10]; 125 g ai/ha
  Plant response rating, Bromegrass, Downy: 0
[11]; 16 g ai/ha
  Plant response rating, Russian Thistle: 0
[11]; 31 g ai/ha
  Plant response rating, Russian Thistle: 0
[11]; 62 g ai/ha
  Plant response rating, Russian Thistle: 0
[11]; 125 g ai/ha
  Plant response rating, Russian Thistle: 0
[12]; 16 g ai/ha
  Plant response rating, Barley, Spring: 0
[12]; 31 g ai/ha
  Plant response rating, Barley, Spring: 0
[12]; 62 g ai/ha
  Plant response rating, Barley, Spring: 0
[12]; 125 g ai/ha
  Plant response rating, Barley, Spring: 0
[13]; 16 g ai/ha
  Plant response rating, Oat, Wild: 0
[13]; 31 g ai/ha
  Plant response rating, Oat, Wild: 0
[13]; 62 g ai/ha
  Plant response rating, Oat, Wild: 0
[13]; 125 g ai/ha
  Plant response rating, Oat, Wild: 0
[14]; 16 g ai/ha
  Plant response rating, Ryegrass, Italian: 0
[14]; 31 g ai/ha
  Plant response rating, Ryegrass, Italian: 30
[14]; 62 g ai/ha
  Plant response rating, Ryegrass, Italian: 35
[14]; 125 g ai/ha
  Plant response rating, Ryegrass, Italian: 100
